Assay results from ChEMBL document CHEMBL3885861, “Open TG-GATES”.

Species: Rattus norvegicus
Experiment: Open TG-GATES - Regimen: Single
Type: toxicity, organism-based, Sprague-Dawley
Set-up: regimen Single, gender Male, age 6 weeks
Details: in vivo, po, 300 mg/kg, route gavage, dose level Low; for RALB / TC / TG / TP / gamma-GTP / A/G / ALP / ALT / AST / BUN / CRE / Ca / Cl / GLC / IP / K / LDH / Na / PL: tissue Plasma; for APTT / Bas / Eos / Fbg / Hb / Ht / Lym / MCH / MCHC / MCV / Mono / Neu / PT / Plat / RBC / Ret / WBC: tissue Blood; for KIDNEY_L / KIDNEY_R / KIDNEY_TOTAL: tissue Kidney; for LIVER: tissue Liver

O=C(O)c1ccccc1Nc1ccccc1 [FENAMIC ACID]
RALB (6 h): 2.5 g/dL
TC (6 h): 58.6 mg/dL
TG (6 h): 38.8 mg/dL
TP (6 h): 5.3 g/dL
gamma-GTP (6 h): 1.2 IU/L
TERMINAL_BW (9 h): 205.1 g
APTT (9 h): 17.9 s
Bas (9 h): 0.6%
Eos (9 h): 1%
Fbg (9 h): 262.6 mg/dL
Hb (9 h): 13.5 g/dL
Ht (9 h): 40.6%
Lym (9 h): 71.8%
MCH (9 h): 20.9 pg
MCHC (9 h): 33.1%
MCV (9 h): 63.2 fL
Mono (9 h): 2%
Neu (9 h): 24.4%
PT (9 h): 14.9 s
Plat (9 h): 116.7 x10_4/uL
RBC (9 h): 642.8 x10_4/ul
Ret (9 h): 7.8%
WBC (9 h): 78.3 x10_2/uL
KIDNEY_L (9 h): 0.9 g
KIDNEY_R (9 h): 0.9 g
KIDNEY_TOTAL (9 h): 1.8 g
LIVER (9 h): 7.2 g
A/G (9 h): 0.9
ALP (9 h): 1734.8 IU/L
ALT (9 h): 35 IU/L
AST (9 h): 69.6 IU/L
BUN (9 h): 13.4 mg/dL
CRE (9 h): 0.2 mg/dL
Ca (9 h): 10.9 mg/dL
Cl (9 h): 108 meq/L
GLC (9 h): 149 mg/dL
IP (9 h): 11 mg/dL
K (9 h): 3.8 meq/L
LDH (9 h): 60.6 IU/L
Na (9 h): 146 meq/L
PL (9 h): 121.6 mg/dL
RALB (9 h): 2.6 g/dL
TC (9 h): 59.4 mg/dL
TG (9 h): 39.8 mg/dL
TP (9 h): 5.5 g/dL
gamma-GTP (9 h): 1.2 IU/L
TERMINAL_BW (24 h): 218.8 g
APTT (24 h): 17.6 s
Bas (24 h): 0.6%
Eos (24 h): 0.6%
Fbg (24 h): 269.2 mg/dL
Hb (24 h): 13.3 g/dL
Ht (24 h): 40.1%
Lym (24 h): 80.6%
MCH (24 h): 20.9 pg
MCHC (24 h): 33.1%
MCV (24 h): 63.2 fL
Mono (24 h): 2.6%
Neu (24 h): 15%
PT (24 h): 14.4 s
Plat (24 h): 121.2 x10_4/uL
RBC (24 h): 634.4 x10_4/ul
Ret (24 h): 7.4%
WBC (24 h): 115.6 x10_2/uL
KIDNEY_L (24 h): 1 g
KIDNEY_R (24 h): 1 g
KIDNEY_TOTAL (24 h): 2 g
LIVER (24 h): 10.2 g
A/G (24 h): 0.9
ALP (24 h): 1785.8 IU/L
ALT (24 h): 38.6 IU/L
AST (24 h): 71.2 IU/L
BUN (24 h): 14 mg/dL
CRE (24 h): 0.2 mg/dL
Ca (24 h): 11.2 mg/dL
Cl (24 h): 105.6 meq/L
GLC (24 h): 173.4 mg/dL
IP (24 h): 6.9 mg/dL
K (24 h): 4 meq/L
LDH (24 h): 130.6 IU/L
Na (24 h): 144.2 meq/L
PL (24 h): 143.2 mg/dL
RALB (24 h): 2.6 g/dL
